We go through 21 molecules from US9770446B2, “Piperidine urea derivatives” (MERCK PATENT GMBH, priority 2013, dated 2017).

SMILES strings stand for the structures.

The assay deals with T1, GST-tagged Tnks-2 (873-1166 aa) (Homo sapiens, UniProt Q9H2K2).
T1 construct: GST-tagged Tnks-2 (873-1166 aa, prepared in-house); made in house
Kind of assay: TNKS2 activity ELISA (autoparsylation assay). It counts as biochemical. Summed up:
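Each GST-tagged enzyme (20 ng/well) was captured overnight at 4 °C on glutathione plates, then auto-ADP-ribosylated with 10 μM biotin-NAD for 1 h at 30 °C, pH 7.7, 0.5% DMSO, compound at 10 concentrations. Streptavidin-HRP chemiluminescence measured the signal. IC50 relative to inhibitor-free reaction, with 5 μM XAV-939 defining zero.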
Background: ELISA stands for enzyme-linked immunosorbent assay.

T1 sequence (Q9H2K2 873-1166): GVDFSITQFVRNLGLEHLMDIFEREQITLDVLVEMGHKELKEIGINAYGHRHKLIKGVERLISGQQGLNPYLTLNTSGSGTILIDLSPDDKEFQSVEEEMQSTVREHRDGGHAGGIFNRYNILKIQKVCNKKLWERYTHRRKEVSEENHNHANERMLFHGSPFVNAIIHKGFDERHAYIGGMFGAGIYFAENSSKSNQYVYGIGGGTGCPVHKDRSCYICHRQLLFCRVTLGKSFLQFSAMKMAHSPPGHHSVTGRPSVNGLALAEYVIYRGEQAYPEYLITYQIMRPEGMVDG

Broadly, the IC50 is the midpoint of a concentration-inhibition curve. Consider `Cc1cccc(N(C)C(=O)N2CCC(C(=O)c3ccccc3)CC2)c1` [Compound A1, 4-benzoyl-piperidine-1-carboxylic acid methyl-m-tolyl-amide], for which the IC50 is below 300 nM. Consider `Cc1ccc(N(C)C(=O)N2CCC(C(=O)c3ccccc3)CC2)cc1` [Compound A2, 4-benzoyl-piperidine-1-carboxylic acid methyl-p-tolyl-amide], for which the concentration for half-maximal inhibition (IC50) is below 300 nM. The result for `COc1ccc(N(C)C(=O)N2CCC(C(=O)c3ccccc3)CC2)cc1` [Compound A4, 4-benzoyl-piperidine-1-carboxylic acid (4-methoxy-phenyl)-methyl-amide] reads below 300 nM. The result for `COc1ccc(N(C)C(=O)N2CCC(C(=O)c3ccc(C)cc3)CC2)cc1` [Compound A5, 4-(4-methyl-benzoyl)-piperidine-1-carboxylic acid (4-methoxy-phenyl)-methylamide] reads below 300 nM; that for `COc1ccc(C(=O)C2CCN(C(=O)N(C)c3ccc(OC)cc3)CC2)cc1` [Compound A6, 4-(4-methoxy-benzoyl)-piperidine-1-carboxylic acid (4-methoxy-phenyl)methyl-amide], below 300 nM. The result for `COc1ccc(N(C)C(=O)N2CCC(C(=O)c3cccc(F)c3)CC2)cc1` [Compound A7, 4-(3-fluoro-benzoyl)-piperidine-1-carboxylic acid (4-methoxy-phenyl)-methylamide] reads below 300 nM; that for `COc1ccc(N(C)C(=O)N2CCC(C(=O)c3ccc(F)cc3)CC2)cc1` [Compound A8, 4-(4-fluoro-benzoyl)-piperidine-1-carboxylic acid (4-methoxy-phenyl)-methylamide], below 300 nM. Turning to `CN(C(=O)N1CCC(C(=O)c2ccccc2)CC1)c1ccc(F)cc1` [Compound A13, 4-benzoyl-piperidine-1-carboxylic acid (4-fluoro-phenyl)-methyl-amide], the IC50 is below 300 nM.

`CCN(C(=O)N1CCC(C(=O)c2ccccc2)CC1)c1ccc(OC)cc1` [Compound A14, 4-benzoyl-piperidine-1-carboxylic acid ethyl-(4-methoxy-phenyl)-amide] had an IC50 below 300 nM. The result for `COc1ccc(N(CCO)C(=O)N2CCC(C(=O)c3ccccc3)CC2)cc1` [Compound A15, 4-benzoyl-piperidine-1-carboxylic acid (2-hydroxy-ethyl)-(4-methoxy-phenyl)amide] reads below 300 nM.

`O=C(c1ccccc1)C1CCN(C(=O)N2CCc3ccccc32)CC1` [Compound A16, (4-benzoyl-piperidin-1-yl)-(2,3-dihydro-indol-1-yl)-methanone] registered an IC50 below 300 nM. As to `Cc1ccc(C(=O)C2CCN(C(=O)N3CCc4ccccc43)CC2)cc1` [Compound A17, (2,3-dihydro-indol-1-yl)-[4-(4-methyl-benzoyl)-piperidin-1-yl]-methanone], the IC50 is below 300 nM. The result for `COc1ccc(C(=O)C2CCN(C(=O)N3CCc4ccccc43)CC2)cc1` [Compound A18, (2,3-dihydro-indol-1-yl)-[4-(4-methoxy-benzoyl)-piperidin-1-yl]-methanone] reads below 300 nM. The result for `CCN(C(=O)N1CCC(C(=O)c2ccc(OC)c(C)c2)CC1)c1ccc(OC)cc1` [Compound A24, 4-(4-methoxy-3-methyl-benzoyl)-piperidine-1-carboxylic acid ethyl-(4-methoxy-phenyl)-amide] reads below 300 nM. In the case of `COc1ccc(N(C)C(=O)N2CCC(C(=O)c3cccc(C)c3)CC2)cc1` [Compound A25, 4-(3-methyl-benzoyl)-piperidine-1-carboxylic acid (4-methoxy-phenyl)methyl-amide] it was below 300 nM; in that of `CCN(C(=O)N1CCC(C(=O)c2cccc(C)c2)CC1)c1ccc(OC)cc1` [Compound A26, 4-(3-methyl-benzoyl)-piperidine-1-carboxylic acid ethyl-(4-methoxy-phenyl)amide], below 300 nM; in that of `COc1ccc(N(C)C(=O)N2CCC(C(=O)c3cccc(OC)c3)CC2)cc1` [Compound A27, 4-(3-methoxy-benzoyl)-piperidine-1-carboxylic acid (4-methoxy-phenyl)methyl-amide], below 300 nM. In turn, `CCN(C(=O)N1CCC(C(=O)c2cccc(OC)c2)CC1)c1ccc(OC)cc1` [Compound A28, 4-(3-methoxy-benzoyl)-piperidine-1-carboxylic acid ethyl-(4-methoxy-phenyl)amide] came in with an IC50 below 300 nM. `COc1ccc(N(C)C(=O)N2CCC(C(=O)c3ccc(OC)c(F)c3)CC2)cc1` [Compound A29, 4-(3-fluoro-4-methoxy-benzoyl)-piperidine-1-carboxylic acid (4-methoxy-phenyl)-methyl-amide] showed an IC50 below 300 nM. In the case of `CN(C(=O)N1CCC(C(=O)c2ccc(NS(C)(=O)=O)cc2)CC1)c1ccccc1` [Compound A38, 4-(4-methanesulfonylamino-benzoyl)-piperidine-1-carboxylic acid methyl-phenyl-amide] it was below 300 nM. In the case of `CCOC(=O)CN(C(=O)N1CCC(C(=O)c2ccc(OC)cc2)CC1)c1ccccc1` [Compound A40, {[4-(4-methoxy-benzoyl)-piperidine-1-carbonyl]-phenyl-amino}-acetic acid ethyl ester] it was below 300 nM.
